# From patent USRE47193E1, “Selectively substituted quinoline compounds” (EISAI R&D MANAGEMENT CO., LTD., priority 2013, dated 2019)
# Test system: NZB/W lupus disease model
# Test: NZBxNZW (NZB/W) lupus disease model
# Type: in vivo, mouse
# Conditions: for mortality: 33, 100 or 300 mg/kg QD PO, 21 weeks of treatment; for impact on anti-dsDNA titers: after 17 weeks of dosing, at 46 weeks of age
# Description: FIG. 2A through FIG. 2C show results of testing ER-899742 in the NZBxNZW strain (abbreviated hereafter as NZBWF1/J or NZB/W) lupus disease model. Figure Legend: Female NZBWF1/J mice were received at 5 weeks of age, baseline bleeds were performed, and mice were monitored for disease progression by following anti-dsDNA titers. At 27 weeks of age, mice were randomized into groups with equivalent median anti-dsDNA titers and treated at 29 weeks of age with Vehicle (Veh; 0.5% methyl-cellulose) alone or 33, 100, or 300 mg/kg once-a-day orally (QD PO). At 46 weeks of age after 17 weeks of treatment mice were bled and tested for anti-dsDNA titers. All mice were sacrificed at 50 weeks of age (21 weeks of compound treatment). (FIG. 2A) Just prior to termination at 50 weeks of age (following 21 weeks of treatment), urine was collected from individual mice, and the Urinary Albumin Creatinine Ratio (UACR, proteinuria) was determined for each animal as an indirect measure of kidney function. (FIG. 2B) Timecourse of mortality observed in this study for the highest and lowest dose groups. […] (FIG. 2C) Impact of treatment on anti-dsDNA titers after 17 weeks of dosing, at 46 weeks of age.
# FIG. 4A through FIG. 4C show results of testing ER-899464 in the NZB/W disease model in the same experiment as FIG. 2A. Figure Legend: (FIG. 4A) Just prior to termination at 50 weeks of age (following 21 weeks of treatment), urine was collected from individual mice, and the Urinary Albumin Creatinine Ratio (UACR, proteinuria) was determined for each animal as an indirect measure of kidney function. (FIG. 4B) Summary of mortality observed in this study for the highest and lowest dose groups. […] ([…]) Impact of treatment on anti-dsDNA titers after 17 weeks of dosing, at 46 weeks of age.
# Mouse Lupus Disease Models.
# Mouse lupus disease model strains. Female NZBWF1/J mice were purchased from Jackson Labs (Bar Harbor, Me.), both of which manifest with spontaneous lupus disease. Female DBA/1 mice were purchased from Harlan Laboratories (Indianapolis, Ind.) and at the indicated ages given an intraperitoneal injection of 0.5 ml pristane (2,6,10,14-Tetramethylpentadecane; Sigma, St. Louis, Mo.) to chemically induce lupus disease or of 0.5 ml PBS to generate age-matched, non-diseased control mice.
# Female NZBWF1/J mice were received at 5 weeks of age, baseline bleeds were performed, and mice were monitored for disease progression by following anti-dsDNA titers. At 27 weeks of age, mice were randomized into groups with equivalent median anti-dsDNA titers and treated at 29 weeks of age with Vehicle (Veh; 0.5% methyl-cellulose) alone or 33, 100, or 300 mg/kg once-a-day orally (QD PO). At 46 weeks of age after 17 weeks of treatment, mice were bled and tested for anti-dsDNA titers. All mice were sacrificed at 50 weeks of age (21 weeks of compound treatment).
# At the end of the experiment kidneys were collected from the animals tested in FIG. 2A through 2C, fixed in 10% formalin for 24 hours, embedded in paraffin, and H&E stained sections were generated for histopathology assessment in a blinded fashion (Grade 0/1+: WNL to minimal; Grade 2: Mild; Grade 3: Moderate to Marked; Grade 4: Severe).
# Assessment of auto-antibody titers by ELISA. Anti-dsDNA, -Sm/nRNP, -RiboP, and -Histone titers were evaluated by standard ELISA approach. Briefly, 96-well EIA/RIA ELISA plates (Corning) were coated with 100 ul of diluted antigen in PBS for 90 minutes at room temperature as follows (final concentrations indicated): 10 U/ml Sm/nRNP complex (Immunovision), 10 ug/ml calf thymus dsDNA (Sigma), 5 U/ml RiboP (Immunovision), and 5 ug/ml Histone (Immunovision). Plates were washed with PBS/0.05% Tween20 (washing buffer) and blocked overnight with PBS/1% BSA (blocking buffer) at 4° C. […]
# [1] = several doses between 33 and 300 mg/kg
SMILES,mortality,impact on anti-dsDNA titers,proteinuria (UACR) [1],survival [1],% combined incidence of Grade 3 and 4 (33 mpk) [%],"Number of mice with GN Score 0 (33 mpk QD PO, kidney histopathology, Grade 0/1+: WNL to minimal)","Number of mice with GN Score 2+ (33 mpk, Grade 2: Mild)","Number of mice with GN Score 3+ (33 mpk, Grade 3: Moderate to Marked)","Number of mice with GN Score 4+ (33 mpk, Grade 4: Severe)",% combined incidence of Grade 3 and 4 (100 mpk) [%],Number of mice with GN Score 0 (100 mpk),Number of mice with GN Score 2+ (100 mpk),Number of mice with GN Score 3+ (100 mpk),Number of mice with GN Score 4+ (100 mpk),% combined incidence of Grade 3 and 4 (300 mpk) [%],Number of mice with GN Score 0 (300 mpk),Number of mice with GN Score 2+ (300 mpk),Number of mice with GN Score 3+ (300 mpk),Number of mice with GN Score 4+ (300 mpk),histological signs of glomerulonephritis [1]
"C[C@@H]1CN(c2ccc(C#N)c3ncccc23)C[C@H](C(=O)NC2CCN(C)CC2)O1 [ER-899464, (2R,6R)-4-(8-cyanoquinolin-5-yl)-6-methyl-N-(1-methylpiperidin-4-yl)morpholine-2-carboxamide]",No mortality was seen in the middle dose group,No statistically significant effect was observed,significantly reduced proteinuria,significant survival benefit,–,–,–,–,–,–,–,–,–,–,–,–,–,–,–,–
"C[C@@H]1CN(c2ccc(C#N)c3ncccc23)C[C@H](C(=O)N[C@H]2CNC[C@H]2F)O1.Cl [ER-899742, (2R,6R)-4-(8-cyanoquinolin-5-yl)-N-[(3S,4R)-4-fluoropyrrolidin-3-yl]-6-methylmorpholine-2-carboxamide hydrochloride]",No mortality was seen with compound treatment,No statistically significant effect was observed,significantly reduced proteinuria,pronounced survival benefit,11,11,5,1,1,6,15,1,1,0,11,9,7,0,2,significantly reduced
